In patent publication US11932628B2, “Selective small molecule peptidomimetic melanocortin ligands” (REGENTS OF THE UNIVERSITY OF MINNESOTA, priority 2021, dated 2024):

Legend:
mMC4R [1] = target: T1, mMC4R (Mus musculus, UniProt P56450); test: Schild analysis of antagonist activity at mMC4R
Method: The antagonist activity may also be reported as a Ki value, which is the inverse Log of pA2. […] Compounds were dissolved in DMSO at a stock concentration of 10^−2 M and stored at −20° C. until assayed. HEK-293 cells stably expressing the selected melanocortin receptors were transiently transfected with 4 μg of CRE/β-galactosidase reporter gene. Briefly, 5000-15000 post transfection cells were plated into collagen treated 96-well plates (Nunc) and incubated overnight. […] The assay media was aspirated, and 50 μL of lysis buffer (250 mM Tris-HCl pH=8.0 and 0.1% Triton X-100) was added. The plates were stored at −80° C. overnight. The plates containing the cell lysates were thawed the following day. Aliquots of 10 μL were taken from each well and transferred to another 96-well plate for relative protein determination. To the cell lysate plates, 40 μL of phosphate-buffered saline with 0.5% BSA was added to each well. Subsequently, 150 μL of substrate buffer (60 mM sodium phosphate, 1 mM MgCl2, 10 mM KCl, 5 mM β-mercaptoethanol, 2 mg/mL ONPG) was added to each well and the plates were incubated at 37° C. The sample absorbance, OD405, was measured using a 96-well plate reader (Molecular Devices). The relative protein was determined by adding 200 μL of 1:5 dilution BioRad G250 protein dye:water to the 10 μL of cell lysate sample taken previously, and the OD595 was measured on a 96-well plate reader (Molecular Devices). Data points were normalized to forskolin and the relative protein content were used as positive controls. The EC50 values represent the mean of three or more independent experiments. The EC50 estimates, and their associated standard errors of the mean, were determined by fitting the data to a nonlinear least-squares analysis using the PRISM program (v4.0, GraphPad Inc.).
The reported values are on a log scale. In order to put them into perspective, their approximate binding disassociation constants, Ki values, can be calculated through the following relationship pA2=−Log10 (Ki).

mMC4R [2] = target: T1, mMC4R; test: cAMP based functional bioassay (CRE/β-galactosidase reporter), agonist activity at mMC4R; set-up: Emax: dose or concentration left out as unconfirmed; conditions: for mMC4R Activity @ 10 μM (class) / mMC4R Activity @ 10 μM (relative activity, percent): reported where receptor not activated to full activity
Method: (§1) The compounds were evaluated using a whole cell assay.
(§2) Compounds were dissolved in DMSO at a stock concentration of 10^−2 M and stored at −20° C. until assayed. HEK-293 cells stably expressing the selected melanocortin receptors were transiently transfected with 4 μg of CRE/β-galactosidase reporter gene. Briefly, 5000-15000 post transfection cells were plated into collagen treated 96-well plates (Nunc) and incubated overnight. […] The assay media was aspirated, and 50 μL of lysis buffer (250 mM Tris-HCl pH=8.0 and 0.1% Triton X-100) was added. The plates were stored at −80° C. overnight. The plates containing the cell lysates were thawed the following day. Aliquots of 10 μL were taken from each well and transferred to another 96-well plate for relative protein determination. To the cell lysate plates, 40 μL of phosphate-buffered saline with 0.5% BSA was added to each well. Subsequently, 150 μL of substrate buffer (60 mM sodium phosphate, 1 mM MgCl2, 10 mM KCl, 5 mM β-mercaptoethanol, 2 mg/mL ONPG) was added to each well and the plates were incubated at 37° C. The sample absorbance, OD405, was measured using a 96-well plate reader (Molecular Devices). The relative protein was determined by adding 200 μL of 1:5 dilution BioRad G250 protein dye:water to the 10 μL of cell lysate sample taken previously, and the OD595 was measured on a 96-well plate reader (Molecular Devices). Data points were normalized to forskolin and the relative protein content were used as positive controls. The EC50 values represent the mean of three or more independent experiments. The EC50 estimates, and their associated standard errors of the mean, were determined by fitting the data to a nonlinear least-squares analysis using the PRISM program (v4.0, GraphPad Inc.).
(§3) The results are tabulated in the form of EC50 values. In the case where the particular receptor was not activated to full activity at 100,000 nM, then the relative activity was reported.

mMC5R = mMC5R (Mus musculus, UniProt P41149); test: cAMP based functional bioassay (CRE/β-galactosidase reporter), agonist activity at mMC5R
Method: as §1, §2, §3

mMC3R = mMC3R (Mus musculus, UniProt P33033); test: cAMP based functional bioassay (CRE/β-galactosidase reporter), agonist activity at mMC3R; conditions: for mMC3R Activity @ 10 μM (class) / mMC3R Activity @ 10 μM (relative activity, percent): reported where receptor not activated to full activity
Method: as §1, §2, §3

mMC1R = mMC1R (Mus musculus, UniProt Q01727); test: cAMP based functional bioassay (CRE/β-galactosidase reporter), agonist activity at mMC1R; conditions: for mMC1R Activity @ 10 μM (class) / mMC1R Activity @ 10 μM (relative activity, percent): reported where receptor not activated to full activity
Chain of mMC1R (Q01727 whole entry): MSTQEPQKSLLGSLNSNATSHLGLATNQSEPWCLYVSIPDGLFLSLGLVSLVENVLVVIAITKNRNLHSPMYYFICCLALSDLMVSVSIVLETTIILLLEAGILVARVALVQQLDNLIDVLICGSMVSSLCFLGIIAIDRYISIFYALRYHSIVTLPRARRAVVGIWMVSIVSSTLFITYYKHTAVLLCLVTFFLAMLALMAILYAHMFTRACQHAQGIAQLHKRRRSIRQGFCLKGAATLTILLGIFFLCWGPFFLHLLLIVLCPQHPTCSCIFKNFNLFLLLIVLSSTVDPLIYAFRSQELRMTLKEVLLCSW
Method: as §1, §2, §3

Chain of mMC5R (P41149 whole entry): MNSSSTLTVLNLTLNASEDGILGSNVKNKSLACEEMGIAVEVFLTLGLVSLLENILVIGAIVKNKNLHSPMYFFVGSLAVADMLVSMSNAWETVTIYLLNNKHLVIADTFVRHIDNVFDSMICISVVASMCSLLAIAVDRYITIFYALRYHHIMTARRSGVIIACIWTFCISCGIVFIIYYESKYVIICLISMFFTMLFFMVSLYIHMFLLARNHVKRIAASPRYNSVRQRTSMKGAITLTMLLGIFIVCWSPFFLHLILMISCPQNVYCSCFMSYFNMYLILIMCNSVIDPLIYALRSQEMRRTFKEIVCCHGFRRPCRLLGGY
T1 sequence (P56450 whole entry): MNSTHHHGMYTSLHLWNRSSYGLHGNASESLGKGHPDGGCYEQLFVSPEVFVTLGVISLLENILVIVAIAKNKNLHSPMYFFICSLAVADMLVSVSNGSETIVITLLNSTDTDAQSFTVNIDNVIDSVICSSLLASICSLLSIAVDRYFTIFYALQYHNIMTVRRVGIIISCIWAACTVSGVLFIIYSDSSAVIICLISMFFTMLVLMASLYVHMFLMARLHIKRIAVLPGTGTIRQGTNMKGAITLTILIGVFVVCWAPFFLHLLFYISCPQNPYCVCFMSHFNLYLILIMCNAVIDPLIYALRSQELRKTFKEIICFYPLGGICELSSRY
Chain of mMC3R (P33033 whole entry): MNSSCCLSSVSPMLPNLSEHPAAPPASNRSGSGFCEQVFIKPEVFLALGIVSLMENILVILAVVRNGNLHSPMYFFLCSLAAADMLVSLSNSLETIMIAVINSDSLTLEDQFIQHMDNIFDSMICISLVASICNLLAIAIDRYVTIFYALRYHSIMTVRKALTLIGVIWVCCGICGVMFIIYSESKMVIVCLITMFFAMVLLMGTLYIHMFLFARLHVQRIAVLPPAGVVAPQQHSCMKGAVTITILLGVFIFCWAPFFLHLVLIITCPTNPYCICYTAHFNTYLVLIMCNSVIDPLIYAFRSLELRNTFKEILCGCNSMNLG

Row | Structure (SMILES) | Kb (mMC4R [1]) [nM] | mMC4R Activity @ 10 μM (class) (mMC4R [2]) | mMC4R Activity @ 10 μM (relative activity, percent) (mMC4R [2]) [%] | EC50 (mMC5R) [nM] | EC50 (mMC3R) [nM] | mMC1R Activity @ 10 μM (class) (mMC1R) | Ki (mMC4R [1]) [nM] | mMC4R Antagonist pA2 (mMC4R [1]; Schild analysis) | Emax (mMC4R [2]; read-out: maximal activation at the melanocortin-4 receptor) [%] | EC50 values at the melanocortin-3 receptor (in words) (mMC3R) | mMC1R Activity @ 10 μM (relative activity, percent) (mMC1R) [%] | EC50 (mMC4R [2]) [nM] | EC50 (mMC1R) [nM] | mMC3R Activity @ 10 μM (class) (mMC3R) | mMC3R Activity @ 10 μM (relative activity, percent) (mMC3R) [%]
1 | CCC[C@@H]1CN([C@H](CC2CCCCC2)CN2CCC[C@H]2CN2C(=N)NC[C@H]2C(C)C)C(=N)N1CC1CCC(C(C)(C)C)CC1 (stereo partly drawn) [TPI 2509-26, (R)-3-((4-(tert-butyl)cyclohexyl)methyl)-1-((R)-1-cyclohexyl-3-((S)-2-(((R)-2-imino-5-isopropylimidazolidin-1-yl)methyl)pyrrolidin-1-yl)propan-2-yl)-4-propylimidazolidin-2-imine] | 1580 | A (A: <50%) | 50 | 540 ± 50 | 350 ± 20 | B (B: >51%) | – | – | – | – | – | – | – | – | –
2 | CCC[C@@H]1CN([C@H](Cc2ccccc2)CN2CCC[C@H]2CN2C(=N)NC[C@H]2C(C)C)C(=N)N1CC12CC3CC(CC(C3)C1)C2 [TPI 2509-34, (R)-3-(adamantan-1-ylmethyl)-1-((R)-1-((S)-2-(((R)-2-imino-5-isopropylimidazolidin-1-yl)methyl)pyrrolidin-1-yl)-3-phenylpropan-2-yl)-4-propylimidazolidin-2-imine] | – | – | – | 6600 ± 5740 | 2000 ± 850 | – | – | – | – | – | – | 1400 ± 760 | 6700 ± 4700 | – | –
3 | CCC[C@@H]1CN([C@H](CC2CCCCC2)CN2CCC[C@H]2CN2C(=N)NC[C@H]2CC(C)C)C(=N)N1CC12CC3CC(CC(C3)C1)C2 [TPI 2509-7] | – | A (A: <50%) | 51 | 470 ± 90 | – | B (B: >51%) | – | – | – | – | 70 | – | – | B (B: >51%) | 67
4 | CC(C)CCCN1C(=N)N([C@H](CC2CCCCC2)CN2CCC[C@H]2CN2C(=N)NC[C@H]2C(C)C)C[C@H]1C(C)C [TPI 2509-30, (R)-1-((R)-1-cyclohexyl-3-((S)-2-(((R)-2-imino-5-isopropylimidazolidin-1-yl)methyl)pyrrolidin-1-yl)propan-2-yl)-4-isopropyl-3-(4-methylpentyl)imidazolidin-2-imine] | – | B (B: >51%) | – | 1700 ± 520 | – | – | – | – | – | – | – | – | 6100 | B (B: >51%) | –
5 | CC[C@H](C)[C@@H]1CNC(=N)N1C[C@@H]1CCCN1C[C@@H](Cc1ccccc1)N1CC(Cc2ccc(O)cc2)N(CC2CCC(C(C)(C)C)CC2)C1=N (stereo partly drawn) [TPI 2509-40, 4-((1-((R)-1-((S)-2-(((R)-5-((S)-sec-butyl)-2-iminoimidazolidin-1-yl)methyl)pyrrolidin-1-yl)-3-phenylpropan-2-yl)-3-((4-(tert-butyl)cyclohexyl)methyl)-2-iminoimidazolidin-4-yl)methyl)phenol] | – | A (A: <50%) | 23 | 380 ± 50 | – | – | – | – | – | – | – | – | 290 ± 20 | B (B: >51%) | 65
6 | CC(C)C[C@@H]1CNC(=N)N1C[C@@H]1CCCN1C[C@@H](CC1CCCCC1)N1C[C@@H]([C@@H](C)O)N(CC2CCC(C(C)(C)C)CC2)C1=N (stereo partly drawn) [TPI 2509-5, (R)-1-((S)-3-((4-(tert-butyl)cyclohexyl)methyl)-1-((R)-1-cyclohexyl-3-((S)-2-(((R)-2-imino-5-isobutylimidazolidin-1-yl)methyl)pyrrolidin-1-yl)propan-2-yl)-2-iminoimidazolidin-4-yl)ethanol] | 1580 | – | 45 | 140 ± 70 | 210 ± 50 | – | – | – | – | – | – | – | 300 ± 90 | – | –
7 | CC(C)C[C@@H]1CNC(=N)N1C[C@@H]1CCCN1C[C@@H](Cc1ccccc1)N1C[C@@H](C(C)C)N(CC23CC4CC(CC(C4)C2)C3)C1=N [TPI 2509-19, (R)-3-(adamantan-1-ylmethyl)-1-((R)-1-((S)-2-(((R)-2-imino-5-isobutylimidazolidin-1-yl)methyl)pyrrolidin-1-yl)-3-phenylpropan-2-yl)-4-isopropylimidazolidin-2-imine] | – | – | – | 440 ± 110 | – | – | – | – | – | – | – | 8200 ± 3550 | 15500 ± 14000 | B (B: >51%) | 67
8 | CC(C)CCCN1C(=N)N([C@H](CC2CCCCC2)CN2CCC[C@H]2CN2C(=N)NC[C@H]2CC(C)C)C[C@H]1C(C)C [TPI 2509-12] | – | B (B: >51%) | – | 1850 ± 800 | – | B (B: >51%) | – | – | – | – | 50 | – | – | A (A: <50%) | 33
9 | CC(C)CCCN1C(=N)N([C@H](CC2CCCCC2)CN2CCC[C@H]2CN2C(=N)NC[C@H]2CC(C)C)C[C@H]1[C@H](C)O [TPI 2509-6] | – | A (A: <50%) | – | 630 ± 50 | – | – | – | – | – | – | – | – | 7300 ± 4400 | B (B: >51%) | 58

Further compounds by falling EC50 (mMC5R), results first:

Row | Kb (mMC4R [1]) [nM] | mMC4R Activity @ 10 μM (class) (mMC4R [2]) | mMC4R Activity @ 10 μM (relative activity, percent) (mMC4R [2]) [%] | EC50 (mMC5R) [nM] | EC50 (mMC3R) [nM] | mMC1R Activity @ 10 μM (class) (mMC1R) | Ki (mMC4R [1]) [nM] | mMC4R Antagonist pA2 (mMC4R [1]; Schild analysis) | Emax (mMC4R [2]; read-out: maximal activation at the melanocortin-4 receptor) [%] | EC50 values at the melanocortin-3 receptor (in words) (mMC3R) | mMC1R Activity @ 10 μM (relative activity, percent) (mMC1R) [%] | EC50 (mMC4R [2]) [nM] | EC50 (mMC1R) [nM] | mMC3R Activity @ 10 μM (class) (mMC3R) | mMC3R Activity @ 10 μM (relative activity, percent) (mMC3R) [%] | Structure (SMILES)
10 | – | A (A: <50%) | 27 | 940 ± 340 | 6200 ± 5400 | – | – | – | – | – | – | – | 2300 ± 1000 | – | – | CCC[C@@H]1CN([C@H](Cc2ccccc2)CN2CCC[C@H]2CN2C(=N)NC[C@H]2C(C)C)C(=N)N1CC1CCC(C(C)(C)C)CC1 (stereo partly drawn) [TPI 2509-35, (R)-3-((4-(tert-butyl)cyclohexyl)methyl)-1-((R)-1-((S)-2-(((R)-2-imino-5-isopropylimidazolidin-1-yl)methyl)pyrrolidin-1-yl)-3-phenylpropan-2-yl)-4-propylimidazolidin-2-imine]
11 | 2510 | B (B: >51%) | 58 | 810 ± 280 | 360 ± 40 | B (B: >51%) | – | – | – | – | 41 | – | – | – | – | CC(C)C[C@@H]1CNC(=N)N1C[C@@H]1CCCN1C[C@@H](Cc1ccccc1)N1C[C@@H]([C@@H](C)O)N(CC23CC4CC(CC(C4)C2)C3)C1=N [TPI 2509-13, (R)-1-((S)-3-(adamantan-1-ylmethyl)-2-imino-1-((R)-1-((S)-2-(((R)-2-imino-5-isobutylimidazolidin-1-yl)methyl)pyrrolidin-1-yl)-3-phenylpropan-2-yl)imidazolidin-4-yl)ethanol]
12 | – | B (B: >51%) | 54 | 660 ± 130 | 4000 ± 1900 | – | – | – | – | – | – | – | 47800 ± 23100 | – | – | CC(C)[C@@H]1CNC(=N)N1C[C@@H]1CCCN1C[C@@H](Cc1ccccc1)N1C[C@@H](C(C)C)N(CC23CC4CC(CC(C4)C2)C3)C1=N [TPI 2509-37, (R)-3-(adamantan-1-ylmethyl)-1-((R)-1-((S)-2-(((R)-2-imino-5-isopropylimidazolidin-1-yl)methyl)pyrrolidin-1-yl)-3-phenylpropan-2-yl)-4-isopropylimidazolidin-2-imine]
13 | – | – | – | 610 ± 160 | – | – | – | – | – | – | – | 1330 ± 510 | 7000 ± 6100 | B (B: >51%) | 74 | CCC[C@@H]1CN([C@H](Cc2ccccc2)CN2CCC[C@H]2CN2C(=N)NC[C@H]2CC(C)C)C(=N)N1CC12CC3CC(CC(C3)C1)C2 [TPI 2509-16, (R)-3-(adamantan-1-ylmethyl)-1-((R)-1-((S)-2-(((R)-2-imino-5-isobutylimidazolidin-1-yl)methyl)pyrrolidin-1-yl)-3-phenylpropan-2-yl)-4-propylimidazolidin-2-imine]
14 | 100 | A (A: <50%) | – | 530 ± 50 | 310 ± 60 | B (B: >51%) | 100 | 7.0±0.7 | > 20 | nanomolar | 58 | – | – | – | – | CC(C)C[C@@H]1CNC(=N)N1C[C@@H]1CCCN1C[C@@H](Cc1ccccc1)N1C[C@@H]([C@@H](C)O)N(CC2CCC(C(C)(C)C)CC2)C1=N (stereo partly drawn) [TPI 2509-14, (R)-1-((S)-3-((4-(tert-butyl)cyclohexyl)methyl)-2-imino-1-((R)-1-((S)-2-(((R)-2-imino-5-isobutylimidazolidin-1-yl)methyl)pyrrolidin-1-yl)-3-phenylpropan-2-yl)imidazolidin-4-yl)ethanol]
15 | – | A (A: <50%) | 50 | 500 ± 40 | – | – | – | – | – | – | – | – | 570 ± 150 | B (B: >51%) | 70 | CC(C)C[C@@H]1CNC(=N)N1C[C@@H]1CCCN1C[C@@H](CC1CCCCC1)N1C[C@@H](C(C)C)N(CC23CC4CC(CC(C4)C2)C3)C1=N [TPI 2509-10]
16 | 3160 | – | 55 | 340 ± 140 | 240 ± 40 | – | – | – | – | – | – | – | 330 ± 110 | – | – | CC(C)C[C@@H]1CNC(=N)N1C[C@@H]1CCCN1C[C@@H](CC1CCCCC1)N1C[C@@H]([C@@H](C)O)N(CC23CC4CC(CC(C4)C2)C3)C1=N [TPI 2509-4, (R)-1-((S)-3-(adamantan-1-ylmethyl)-1-((R)-1-cyclohexyl-3-((S)-2-(((R)-2-imino-5-isobutylimidazolidin-1-yl)methyl)pyrrolidin-1-yl)propan-2-yl)-2-iminoimidazolidin-4-yl)ethanol]
